Experimental findings from patent US8609715B2, “Heteroarylcarboxylic acid ester derivative” (Ajinomoto Co., Inc., priority 2009, dated 2013) are described below.

Each structure is given as a SMILES string. pKi: −log10 of the molar value. Where a name gives a salt, the structure may show the parent alone.

Sequence of recombinant human enteropeptidase (P98073 whole entry): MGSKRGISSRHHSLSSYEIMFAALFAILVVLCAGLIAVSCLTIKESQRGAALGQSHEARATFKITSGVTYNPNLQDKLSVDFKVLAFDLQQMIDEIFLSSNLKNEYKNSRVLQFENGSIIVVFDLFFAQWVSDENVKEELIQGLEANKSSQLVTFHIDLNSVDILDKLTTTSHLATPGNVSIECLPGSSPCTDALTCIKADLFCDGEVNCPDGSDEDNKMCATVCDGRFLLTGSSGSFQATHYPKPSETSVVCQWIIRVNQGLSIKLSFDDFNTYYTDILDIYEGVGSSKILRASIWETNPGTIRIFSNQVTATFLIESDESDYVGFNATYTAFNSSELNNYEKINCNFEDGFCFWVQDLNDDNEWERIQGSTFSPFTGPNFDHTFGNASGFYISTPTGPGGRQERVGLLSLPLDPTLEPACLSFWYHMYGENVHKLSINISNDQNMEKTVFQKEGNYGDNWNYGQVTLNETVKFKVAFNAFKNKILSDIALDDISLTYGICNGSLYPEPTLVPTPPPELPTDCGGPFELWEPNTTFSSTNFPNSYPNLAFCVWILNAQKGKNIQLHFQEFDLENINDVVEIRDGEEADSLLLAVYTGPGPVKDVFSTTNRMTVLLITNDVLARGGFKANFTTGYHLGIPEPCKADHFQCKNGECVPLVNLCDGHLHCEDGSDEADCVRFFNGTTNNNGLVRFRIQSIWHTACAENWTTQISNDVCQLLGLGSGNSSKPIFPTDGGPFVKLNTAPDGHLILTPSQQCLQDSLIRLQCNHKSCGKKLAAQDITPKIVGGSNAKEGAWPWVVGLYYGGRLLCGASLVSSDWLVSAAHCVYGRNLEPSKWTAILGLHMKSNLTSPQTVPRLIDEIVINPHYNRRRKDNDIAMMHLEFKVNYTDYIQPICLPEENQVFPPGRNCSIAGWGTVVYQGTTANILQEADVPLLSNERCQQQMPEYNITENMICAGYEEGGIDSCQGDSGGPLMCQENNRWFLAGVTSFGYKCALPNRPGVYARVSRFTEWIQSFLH

One experiment has as its target recombinant human enteropeptidase (Homo sapiens (Human), UniProt P98073). Briefly: Measurement of enteropeptidase inhibitory activity. The class given is biochemical. As to conditions: Dixon plot. In a few lines:
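Enzyme activity followed as reaction rate from fluorescence time course (ex 320 nm, em 405 nm) using Gly-Asp-Asp-Asp-Asp-Lys-β-naphthylamide substrate (0.5 mg/mL stock) in Tris-HCl pH 8.0. Ki obtained by Dixon plot from compound concentration, reciprocal rate and substrate Km.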
As to `CC(Cc1cc(C(=O)Oc2ccc(C(=N)N)cc2F)cs1)C(=O)O` (centres unmarked) [Compound B-51, 3-[4-(4-amidino-2-fluorophenoxycarbonyl)thiophen-2-yl]-2-methylpropanoic acid trifluoroacetic acid salt], the pKi was 9.14.
Take `CC(Cc1cc(C(=O)Oc2ccc(C(=N)N)cc2F)cs1)C(=O)N[C@@H](CC(=O)O)C(=O)O` (some centres unmarked) [Compound B-52]: the pKi is 9.41.
The same measure, in the same setting: then `CC(Cc1cc(C(=O)Oc2ccc(C(=N)N)cc2)cs1)C(=O)N[C@@H](CC(=O)O)C(=O)O` (some centres unmarked) [Compound B-53], with 8.32; and `N=C(N)c1ccc(OC(=O)c2csc(CCC(=O)N[C@@H](CC(=O)O)C(=O)O)c2)c(F)c1` [Compound B-54, N-{3-[4-(4-amidino-2-fluorophenoxycarbonyl)thiophen-2-yl]propanoyl}-L-aspartic acid trifluoroacetic acid salt], with 9.24; and `CC(Cc1csc(C(=O)Oc2ccc(C(=N)N)cc2)c1)C(=O)N[C@@H](CC(=O)O)C(=O)O` (some centres unmarked) [Compound B-55], with 9.01.
Turning to `N=C(N)c1ccc(OC(=O)c2ccc(-c3ccc(C(=O)N[C@@H](CC(=O)O)C(=O)O)cc3)s2)cc1` [Compound B-56], the pKi is 8.02.
Same read-out and setting: then `N=C(N)c1ccc(OC(=O)c2ccc(-c3ccc(C(=O)N[C@@H](CC(=O)O)C(=O)O)cc3)s2)c(F)c1` [Compound B-57], with 8.52; and `N=C(N)c1ccc(OC(=O)c2ccc(-c3cccc(C(=O)N[C@@H](CC(=O)O)C(=O)O)c3)s2)cc1` [Compound B-58], with 8.01.
Take `N=C(N)c1ccc(OC(=O)c2ccc(-c3ccc(C(=O)N[C@@H](CC(=O)O)C(=O)O)s3)s2)cc1` [Compound B-59, N-{5-[5-(4-amidinophenoxycarbonyl)-thiophen-2-yl]thiophen-2-ylcarbonyl}-L-aspartic acid trifluoroacetic acid salt]: the pKi is 8.09.
Same read-out and setting: then `N=C(N)c1ccc(OC(=O)c2ccc(CC(=O)N[C@@H](CC(=O)O)C(=O)O)s2)c(F)c1` [Compound B-60, N-[5-(4-amidino-2-fluorophenoxycarbonyl)thiophen-2-ylacetyl]-L-aspartic acid trifluoroacetic acid salt], with 9.19; and `Cc1cc(C(=O)Oc2ccc(C(=N)N)cc2F)sc1CCC(=O)N[C@@H](CC(=O)O)C(=O)O` [Compound B-61, N-{3-[5-(4-amidino-2-fluorophenoxycarbonyl)-3-methylthiophen-2-yl]propanoyl}-L-aspartic acid trifluoroacetic acid salt], with 9.89; and `N=C(N)c1ccc(OC(=O)c2ccc(CCC(=O)N[C@@H](CCC(=O)O)C(=O)O)s2)c(F)c1` [Compound B-62], with 9.24.
On to `C=CCN(C(=O)CCc1ccc(C(=O)Oc2ccc(C(=N)N)cc2F)s1)[C@@H](CC(=O)O)C(=O)O` [Compound B-63, N-{3-[5-(4-amidino-2-fluorophenoxycarbonyl)thiophen-2-yl]propanoyl}-N-allyl-L-aspartic acid trifluoroacetic acid salt], for which the pKi is 9.26.
Consider `CC(C)(Cc1ccc(C(=O)Oc2ccc(C(=N)N)cc2F)s1)C(=O)N[C@@H](CC(=O)O)C(=O)O` [Compound B-64, N-{3-[5-(4-amidino-2-fluorophenoxycarbonyl)thiophen-2-yl]-2,2-dimethylpropanoyl}-L-aspartic acid trifluoroacetic acid salt], for which the pKi was 9.85.
As for `N=C(N)c1ccc(OC(=O)c2ccc(CCC(=O)N[C@@H](Cc3ccc(O)cc3)C(=O)O)s2)c(F)c1` [Compound B-65], the pKi was 8.49.
Consider `N=C(N)c1ccc(OC(=O)c2ccc(CCC(=O)N[C@@H](CO)C(=O)O)s2)c(F)c1` [Compound B-66], for which the pKi is 9.14.
`C/C(=C\c1nc(C(=O)Oc2ccc(C(=N)N)cc2)cs1)C(=O)N(CCCO)CC(=O)O` [Compound C-2]: the pKi was 8.25.

A further experiment deals with KK-A^y/JCL mice. Briefly: Evaluation of antidiabetic action (blood glucose level). The note with it: dose 5.6 mg/100 g mixed in feed CRF-1, after one week of dosing. The class given is in vivo. An excerpt: Evaluation of Antidiabetic Action KK-A^y/JCL mice (male, 5- to 7-week-old, CLEA Japan, Inc.) known to spontaneously develop obese type 2 diabetes were purchased and, after one week of preliminary rearing period, grouped (6 per group) with the body weight and non-fasting blood glucose levels as indices. The animals were individually housed in a polycarbonate cage and allowed to drink water freely from a watering bottle. […] CRF-1 alone was given to the control group. After one week of dosing period, the blood (6 μL) was drawn from the tail vein of the animals, and the blood glucose level was measured by ACCU-CHEK Aviva (Roche Diagnostics K.K.). A significant difference from the control group was detected by Dunnett's multiple comparison test or Student's t-test (significance level less than 5%).
Take `CC(Cc1ccc(C(=O)Oc2ccc(C(=N)N)cc2)o1)C(=O)N[C@H](CC(=O)O)C(=O)O.O=C(O)C(F)(F)F` (some centres unmarked) [A-28 hydrochloride]: the “Mean blood glucose level” value came to 219 mg/dL.
Turning to `CC(Cc1ccc(C(=O)Oc2ccc(C(=N)N)cc2)s1)C(=O)N[C@@H](CC(=O)O)C(=O)O.O=C(O)C(F)(F)F` (some centres unmarked) [B-18 hydrochloride], the “Mean blood glucose level” value is given as 217 mg/dL.
On the same count and under the same terms, then `CC(Cc1ccc(C(=O)Oc2ccc(C(=N)N)cc2F)s1)C(=O)N[C@@H](CC(=O)O)C(=O)O.O=C(O)C(F)(F)F` (some centres unmarked) [B-20 hydrochloride], with 197 mg/dL; and `CC(Cc1ccc(C(=O)Oc2ccc(C(=N)N)cc2)s1)C(=O)N[C@H](CC(=O)O)C(=O)O.Cl` (some centres unmarked) [B-23 hydrochloride], with 198 mg/dL; and `N=C(N)c1ccc(OC(=O)c2ccc(CCC(=O)N[C@@H](CC(=O)O)C(=O)O)s2)c(F)c1.O=C(O)C(F)(F)F` [B-32 hydrochloride], with 249 mg/dL.

The experiment is the same for the next values; noted with them: dose 16.8 mg/100 g mixed in feed CRF-1, after one week of dosing.
Turning to `CC(Cc1ccc(C(=O)Oc2ccc(C(=N)N)cc2)s1)C(=O)N[C@@H](CC(=O)O)C(=O)O.O=C(O)C(F)(F)F` (some centres unmarked) [B-18 hydrochloride], the “Mean blood glucose level” value is listed as 138 mg/dL.

Broadly, the pKi is the Ki on a negative log10 scale, so that one unit is a factor of ten.
